Test [1] relates to HCT-116. Description: Antiproliferative activity against human HCT-116 cells assessed as inhibition of cell growth incubated for 72 hrs by celltiter-glo assay. It counts as functional, cell-based. The note with it: HCT-116, 72 h.
For test [2], the target named is T1, Serine/threonine-protein kinase pim-2 (Homo sapiens, UniProt Q9P1W9). Put plainly: Inhibition of human PIM2 by ADP-Glo luminescent assay.
A further test has as its system MV4-11. Description: Antiproliferative activity against human MV4-11 cells assessed as inhibition of cell growth incubated for 72 hrs by Celltiter-glo assay. It counts as functional, cell-based. The note with it: MV4-11, 72 h. On the technique in general: Cellular ATP, detected with luciferase, serves as a proxy for viable cell number.
Test [3] concerns the target T2, Serine/threonine-protein kinase pim-1 (Homo sapiens, UniProt P11309). Put plainly: Inhibition of human PIM1 by ADP Glo luminescent assay. In general terms: In ADP-Glo the light output rises with the ADP produced.
Test [4] has as its target T1, Serine/threonine-protein kinase pim-2. Description: Inhibition of human full length-His6 tagged PIM2 (1 to 311 residues) expressed in Escherichia coli BL21 (DE3) assessed as inhibition constant using RSRHSSYPAGT as peptide substrate incubated for 10 mins in presence of [gamma-32P]ATP by radiometric scintillation assay.
Test [5] addresses T2, Serine/threonine-protein kinase pim-1. Put plainly: Inhibition of human full length-His6 tagged PIM1 (1 to 312 residues) expressed in Escherichia coli BL21 (DE3) using RSRHSSYPAGT as peptide substrate incubated for 10 mins in presence of [gamma-32P]ATP by radiometric scintillation assay.
For test [6] the target is unchanged. Description: Binding affinity to PIM1 (unknown origin) assessed as inhibition constant.
The target in test [7] is T1, Serine/threonine-protein kinase pim-2. Put plainly: Binding affinity to PIM2 (unknown origin) assessed as inhibition constant.
In test [8] the test system is MCF7. Put plainly: Antiproliferative activity against human MCF7 cells assessed as reduction in cell growth incubated for 48 hrs by MTT assay. It counts as functional, cell-based. The following applies: MCF7, 48 h.
The test system of test [9] is HCT-116. Description: Antiproliferative activity against human HCT-116 cells assessed as inhibition of cell growth incubated for 24 hrs by MTT assay. The note with it: HCT-116, 24 h. It counts as functional, cell-based. In general terms: Formazan colour is commonly taken as a measure of viable cells.
Test [10] addresses T2, Serine/threonine-protein kinase pim-1. Description: Inhibition of human PIM1 by discoverX kinome scan assay.
Test [11] in a line: Inhibition of PI3K (unknown origin). On the set-up: species or system Homo sapiens.
Test [12] addresses Serine/threonine-protein kinase mTOR (Homo sapiens, UniProt P42345). Description: Inhibition of mTOR (unknown origin).
In test [13] the target is T2, Serine/threonine-protein kinase pim-1. Description: Inhibition of PIM1 (unknown origin) by FRET based Z-LYTE kinase assay.
Test [14] addresses T1, Serine/threonine-protein kinase pim-2. Put plainly: Inhibition of PIM2 (unknown origin) by FRET based Z-LYTE kinase assay.
The target of test [15] is T3, Serine/threonine-protein kinase pim-3 (Homo sapiens, UniProt Q86V86). Description: Inhibition of PIM3 (unknown origin) by FRET based Z-LYTE kinase assay.
Test [16] has as its target T1, Serine/threonine-protein kinase pim-2. Put plainly: Inhibition of N-terminal GST-tagged full length human PIM2 (1 to 311 residues) expressed in baculovirus expression system using S6K2 peptide as substrate at 1 uM in presence of ATP by Mobility shift assay.
Test [17] has as its target T4, Prostaglandin G/H synthase 2 (Homo sapiens, UniProt P35354).
T4 sequence (P35354 whole entry): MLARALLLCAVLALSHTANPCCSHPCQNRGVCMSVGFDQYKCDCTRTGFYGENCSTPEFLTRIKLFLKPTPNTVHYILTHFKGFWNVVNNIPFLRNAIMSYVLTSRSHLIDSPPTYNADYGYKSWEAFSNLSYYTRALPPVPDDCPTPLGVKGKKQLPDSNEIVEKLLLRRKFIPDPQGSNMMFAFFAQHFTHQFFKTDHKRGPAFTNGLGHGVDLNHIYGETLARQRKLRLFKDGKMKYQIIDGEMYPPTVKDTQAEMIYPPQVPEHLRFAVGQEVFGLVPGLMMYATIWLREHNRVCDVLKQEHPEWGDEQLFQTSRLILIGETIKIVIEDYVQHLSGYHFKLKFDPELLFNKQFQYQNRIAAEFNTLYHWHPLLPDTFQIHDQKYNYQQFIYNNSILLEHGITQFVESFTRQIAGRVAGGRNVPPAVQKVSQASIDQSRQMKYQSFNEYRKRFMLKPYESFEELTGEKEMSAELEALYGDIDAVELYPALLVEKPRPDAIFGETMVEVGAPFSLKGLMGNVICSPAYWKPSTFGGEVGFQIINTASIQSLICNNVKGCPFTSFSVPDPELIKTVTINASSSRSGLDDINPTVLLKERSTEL
Description: Inhibition of COX2 (unknown origin) fluorescence based analysis.

For test [18], the target named is Prostaglandin G/H synthase 1 (Homo sapiens, UniProt P23219). Put plainly: Inhibition of COX1 (unknown origin) fluorescence based analysis.
The target in test [19] is T2, Serine/threonine-protein kinase pim-1. Description: Inhibition of human recombinant PIM1.
Test [20] deals with T5, Polyunsaturated fatty acid 5-lipoxygenase (Homo sapiens, UniProt P09917).
T5 sequence (P09917 whole entry): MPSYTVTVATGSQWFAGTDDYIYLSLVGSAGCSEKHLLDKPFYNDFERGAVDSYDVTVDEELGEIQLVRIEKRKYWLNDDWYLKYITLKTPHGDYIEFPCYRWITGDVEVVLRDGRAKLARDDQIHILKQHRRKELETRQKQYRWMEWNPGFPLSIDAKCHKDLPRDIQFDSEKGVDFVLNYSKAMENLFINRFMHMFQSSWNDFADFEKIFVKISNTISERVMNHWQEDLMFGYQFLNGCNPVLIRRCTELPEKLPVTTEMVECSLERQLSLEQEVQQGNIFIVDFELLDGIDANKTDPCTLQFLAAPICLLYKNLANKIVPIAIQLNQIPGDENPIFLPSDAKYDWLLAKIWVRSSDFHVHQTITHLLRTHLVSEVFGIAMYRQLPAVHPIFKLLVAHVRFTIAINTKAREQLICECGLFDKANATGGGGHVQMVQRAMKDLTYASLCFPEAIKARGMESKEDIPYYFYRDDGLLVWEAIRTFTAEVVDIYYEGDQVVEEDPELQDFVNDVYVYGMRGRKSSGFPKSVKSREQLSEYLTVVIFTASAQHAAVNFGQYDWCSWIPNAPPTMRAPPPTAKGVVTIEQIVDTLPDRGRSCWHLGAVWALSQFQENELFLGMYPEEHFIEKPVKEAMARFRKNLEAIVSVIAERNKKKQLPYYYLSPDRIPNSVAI
Put plainly: Inhibition of 5-LOX in human PMNL cells. The format is cell-based.

For test [21], the target named is T2, Serine/threonine-protein kinase pim-1. Put plainly: Inhibition of human PIM1 using KKRNRTLTK as substrate in presence of [gamma-33P]-ATP by hotspot kinase assay.
The target in test [22] is T3, Serine/threonine-protein kinase pim-3. Description: Inhibition of N-terminal GST-tagged full length human PIM3 (1 to 326 residues) expressed in baculovirus expression system using S6K2 peptide as substrate at 1 uM in presence of ATP by Mobility shift assay.
Test [23] deals with MCF7. Description: Cytotoxicity against human MCF7 cells assessed as reduction in cell viability by MTT assay. The format is functional, cell-based.

SMILES strings stand for the structures. Bounds are passed on as bounds.

In general, IC50 refers to the midpoint of a concentration-inhibition curve. The Ki is a dissociation constant, usually derived from enzyme kinetics or from competition with a known ligand.

Take `Cc1nc2cccc3c2nc1N[C@H](C)/C=C\C[C@H]1CNC(=O)c2cc-3[nH]c21`: the IC50 in the test with HCT-116 [1] was determined as 45300 nM; in test [2], 500 nM; in the test on MV4-11 it was 35500 nM; in test [3], 130 nM.
As to `Cc1cccc(-c2c(-c3cccc(OC(F)(F)F)c3)cc3n2[C@@H](CCN)CNC3=O)c1`, the results for the IC50 in test [4] and in test [5] were 25000 nM and 7 nM, respectively.
As to `CC(C)(C)Nc1nnc(-c2ccc3[nH]cc(-c4nccc(C5CC5)n4)c3c2)o1`, the Ki was 0.55 nM in test [6] and 0.28 nM in test [7].
Turning to `COc1cc(C2NC(=O)c3sc4nc(C)c(Br)c(C)c4c3N2)ccc1O` (stereo not given), the IC50 amounted to 460 nM with MCF7 [8] and 360 nM in the test with HCT-116 [9].
The like results for `Cc1nc2sc3c(c2c(C)c1Br)NC(c1ccc(O)c(O)c1)NC3=O` (stereo not given) were, in that order, 220 nM and 370 nM.
As to `N#Cc1nnc2c3c(-c4ccccc4Cl)c(C#N)c(=O)[nH]c3nn2c1N`, half-maximal inhibition in test [10] (IC50) required 43000 nM.
As for `COc1ncc2cc1NS(=O)(=O)c1cccc(c1)C(=O)NCc1cccc(c1)-c1ncnc3c1SC2=C3`, the IC50 in [11] is 16.8 nM; in test [12] it was > 10000 nM.
The like results for `COc1ncc2cc1NS(=O)(=O)c1ccc(F)c(c1)C(=O)NCC1=CC=C(S1)c1ncnc3c1SC2=C3C` were, in that order, 0.13 nM and 74500 nM.
As to `CCOc1cc(/C=C2\SC(=S)NC2=O)ccc1O`, the IC50 in test [13] was 420 nM; in test [14], 310 nM; in test [15], 170 nM.
The like results for `CN1CCN(c2ccc(-n3cnc4ccc(/C=C5\SC(=S)NC5=O)cc43)cc2)CC1` were, in that order, 16000 nM, 16000 nM and 6400 nM.
On to `Cc1ccc(C(C)C)c(O)c1/C=N/N=C1/SC(CC(=O)O)C(=O)N1c1cccc2ccccc12` (stereo not given), for which the IC50 in test [16] was found to be 1740 nM; in test [17] it was 9110 nM; in test [18] it was 200 nM; in test [19] it was 4090 nM; in test [20], 3160 nM.
`CN1CCN(C[C@@H](NC(=O)CC2CNC(=O)c3cc(-c4cccc(Cl)c4)cn32)C2CCCCC2)CC1` (stereo not given in full): the IC50 in test [5] is 1.5 nM.
Take `N#Cc1c(-c2ccccc2)cc(-c2ccccc2)nc1OCC(=O)NO`: the half-inhibitory concentration (IC50) in test [21] amounted to 427 nM.
`COc1ccc(/C=C/C(/C=C2/C(=O)Nc3cc(Br)ccc32)=N/O)cc1`: the IC50 in test [4] was 220 nM; in test [5], 470 nM; in test [22], 360 nM.
With `COc1ccc(N2CCN(C(=O)c3sc4nc(C)c(Br)c(C)c4c3N)CC2)cc1`, the IC50 in test [10] is 12700 nM; in the test with MCF7 [23], 107000 nM.
Take `COc1ccc(N2C(=O)C(CC(=O)O)S/C2=N/N=C/c2c(C)ccc(C(C)C)c2O)cc1` (stereo not given): the IC50 in test [16] worked out at 976 nM; in test [17], 37 nM; in [18] it was 14000 nM; in [19], 7210 nM; in test [20] it was 2810 nM.

The record behind these values is ChEMBL document CHEMBL5532678, “Comprehensive Insights that Targeting PIM for Cancer Therapy: Prospects and Obstacles” (J Med Chem, 2024).
